# Measurements from patent publication US20060198882A1, “Stable liposomes or micelles comprising a sphinolipid and a peg-lipopolymer” (priority 2003, published 2006).
# Values joined by “and” are separate entries in the source; they are usually repeats but may differ in a detail not shown here. Identical values can stand only once.
# Legend:
# [1] = Surface-pressure area isotherms; format: physicochemical; details: for minimal area per molecule: constant pressure of 20 mN/m; for collapse point pressure of monolayer: pure water sub-phase; for Area/molecule: table, monolayer on pure water sub-phase
# Method: The tested ceramides (C2 Cer, C4 Cer, C6 Cer, C8 Cer, C16 Cer) were dried in vacuum overnight, weighted and dissolved in hexane/isopropanol (3:2 vol.) to make the following stock solutions.
# The surface-pressure/area isotherms were obtained on pure water sub-phase (similar isotherms were obtained on 140 mM NaCl). Barrier speed during compression was […] for all monolayers.
# The minimal area per molecule of different ceramides (C2 Cer, C4 Cer, C6 Cer, C8 Cer, C16 Cer) was calculated at the constant pressure of 20 mN/m. […] The area per molecule of C2 Cer, C4 Cer, C8 Cer, C16 Cer was about 38, 46, 45.5, and 37.5^2, respectively.
# [2] = Partition in the two phases of the Dole system; format: physicochemical; details: for % of lipid in heptane-rich upper phase / % of lipid in isopropanol/water lower phase: Dole two phase system
# Method: The distribution of the C18 sphingosine-based ceramides with different acyl chain lengths and of DMS between the polar phase and respectively less polar phase (as defined below) of the Dole two phase system was determined. […] The different ceramides included: short (C2 Cer and C4 Cer), medium (C6 Cer and C8 Cer), long (C16 Cer). […] In: Liposome Technology 2nd Edn., G Gregoriadis (Ed.) CRC Press, Boca Raton, 1993, vol. 1, pp: 527-616]. The amount of each of the lipids used in each of the two phases was measured by thin-layer chromatography (TLC). For ceramide quantification TLC was developed in a solvent system containing chloroform/methanol (95:5 v/v). For DMS quantification TLC was developed in a solvent system containing chloroform/methanol/ammonia (89/9/2 v/v). Further, the TLC plate was sprayed with Copper sulfate reagent composed of 100 g anhydrous copper sulfate containing 80 ml of phosphoric acid (85%), %) dissolved in 600 ml of DDW. Copper sulphate reagent was applied to the plates by spraying, then heated and lipids appeared as dark brown spot. […] Quantity of ceramides in each phase was calculated from a standard curve of appropriate ceramide. […] (1993)Supra]. The distribution between the two Dole system phases was determined by the equation (as exemplified for ceramide): [formula] [formula] Where Kp denotes the partition coefficient of a given lipid or amphiphile referred to in the equation as lipid; Cer denotes ceramide; up is an abbreviation for the heptane rich low polarity upper phase and lp is an abbreviation for the polar isopropanol water rich lower phase.
# [3] = system: caspase-3 activity in OV-1063 tumor cells; assay: EnzChek Caspase-3 assay; format: cell-based, human; details: 16 hr, IC50 values
# From the text: Biochemically, apoptosis was verified by the EnzChek™ Caspase-3 Assay Kit (Molecular Probes). This allows the detection of apoptosis by assaying for increases in caspase-3 and other DEVD-specific protease activities (e.g., caspase-7). The basis for the assay is rhodamine 110 bis-(N-CBZ-aspartyl-L-glutamyl-L-valyl-aspartic acid amide) referred to as Z-DEVD-R110. This substrate is a bisamide derivative of rhodamine 110 (R110) containing DEVD peptides covalently linked to each of R110's amino groups. Upon enzymatic cleavage, the nonfluorescent bisamide substrate is converted to the fluorescent R110, which was quantified by a fluorescence microplate reader (Tecan) using excitation at 485±10 nm and emission at 535±10 nm. […] The AC-DEVD-inhibitor was used to confirm that the observed fluorescence signal in treated samples is due to the activity of caspase-3 protease. Both induced and control cells were then harvested and lysed. Enzyme reactions were performed in 96-well plates with 50 μg of cytosolic proteins (55 min. of incubation) and a final concentration of 25 μM Z-DEVD-R110 substrate, as described in the kit protocol.
# [4] = Injection of ceramide dispersions into mice (tolerance, weight); details: for decrease from initial weight: mouse, in vivo
# Method: […] of C2Cer and C6Cer dispersions in ethanol or in ethanol:dodecane (98:2) (required final blood concentration of about 3.3%) were injected to the Balb/c female mice (8 week old).
# In addition, 1 μmole/mouse of C2Cer and C6Cer dispersions in ethanol or in ethanol:dodecane (98:2) in isotonic BSA solution (BSA 2 mM, NaCl 112 mM, pH 7.4) was injected in order to reach the final ethanol or ethanol:dodecane blood concentration of about 3.3%. For the preparation of ceramide-BSA complexes the 33 μl of 30 mM stock of C2Cer and C6Cer dispersions were incubated for 30 min at 30° C. with 417 μl of 2 mM BSA solution in order to reach the ceramide/BSA mole ratio of 1/0.8, respectively [Hannun, Supra, 2000].
# [5] = Conversion of C6Cer in cell derived or fresh medium; format: in vitro ADME
SMILES,monolayer stability [1],minimal area per molecule [1],collapse point pressure of monolayer [1],Area/molecule [1],Kp (heptane rich/isopropanol and water rich partition coefficient) [2],% of lipid in heptane-rich upper phase [2],% of lipid in isopropanol/water lower phase [2],"increase in caspase-3 activity vs control, untreated cells [3]",decrease from initial weight [4],ceramide converted into C6 SPM ([5]; cell derived medium (taken from C26 cells)),metabolic activity ([5]; fresh medium),death of mice ([4]; ethanol:dodecane (98:2) dispersions)
"CCCCCCCCCCCCC/C=C/[C@@H](O)[C@H](CO)NC(=O)CCCCCCCCCCCCCCC [C16Cer, N-palmitoyl-D-erythro-sphingosine]",unstable monolayer,~37.5 Å^2,up to 50 mN/m,37.5 A^2,8.21,89%,11%,no activation,,,,
"CCCCCCCCCCCCC/C=C/[C@@H](O)[C@H](CO)NC(C)=O [C2Cer, N-Acetyl-D-erythro-sphingosine]",did not give a stable monolayer,about 38 Å^2,about 42 mN/m,38 A^2,0.54,21% and 21.2%,79% and 78.8%,,about 5%,,,
"CCCCCCCCCCCCC/C=C/[C@@H](O)[C@H](CO)NC(=O)CCCCC [C6Cer, N-hexanoyl-D-erythro-sphingosine]",,about 50 Å^2,about 42 mN/m,50 A^2,3.17,63% and 62.7%,37.3%,,about 5%,9%,no metabolitic activity,died during the injection
